According to US7163944B2, “Cyclic diamine compound and pharmaceutical containing the same” (Kowa Co., Ltd., priority 2004, dated 2007):

Legend:
[1] = Metabolic stability in human liver microsomes; format: in vitro ADME
Method: Test 2: Test on Metabolic Stability in Human Liver Microsomes
In accordance with the below-described Table 2, an NRS (NADPH regenerating system) solution and 16% human serum albumin were added to a 0.1 mol/L phosphate buffer (containing 3.3 mM magnesium chloride) (pH 7.4), followed by the addition of a solution of a test compound (100 μM) in acetonitrile (0.01 mL). After preincubation in a warm bath of 37° C. for 5 minutes, human liver microsomes (POOLED HUMAN LIVER MICROSOMES, Lot. No. 20, product of GENETEST) were added and a reaction was effected for 30 minutes in a warm bath of 37° C. A 0.25 mL portion of the reaction mixture was collected 0 and 30 minutes after the initiation of the reaction, followed by extraction. The amount of the test compound was measured by HPLC. A remaining ratio of the unchanged compound after 30 minutes was calculated based on the following equation: (peak area after 30 minutes/peak area at 0 minute)×100.
To each sample were added 1.0 mL of a glycine buffer (pH 10), 0.1 mL of an internal standard substance and 5.0 mL of tert-butyl methyl ether, followed by shaking for 10 minutes and centrifugal separation at 2500 rpm for 10 minutes to collect the organic layer.

[2] = system: lipid-loaded F1B hamster model; test: Aorta lipid deposition suppression test, lipid-loaded F1B hamster model; format: in vivo; conditions: Bio F1B male hamsters, fat-rich diet 10 weeks, 1 mg/kg orally twice a day, aorta Oil red O area vs control group
Method: Test 3: Aorta Lipid Deposition Suppression Test
In accordance with the method of Nicolosi, et al., a test using an animal model of arteriosclerosis, that is, a lipid-loaded F1B hamster model was made and a lipid deposition area in the aortic arch was measured to investigate the effects of the test compound for suppressing lipid deposition [refer to Nicolosi R J, et al., Atherosclerosis 137, 77–85(1988)].
Bio F1B male hamsters purchased from Charles River Japan, Inc. were divided at random into three groups (a compound (1) administered group, a comparative compound (B) administered group and a medicament non-administered group (control group)), each group consisting of 6 hamsters. […] After 10 weeks, an area of the lipid deposited in the aorta was measured by an image analyser. […]
An 18-G injection needle was inserted into the cardiac apex, followed by perfusion with physiological saline (120 mmHg) for about 5 minutes, and then, with a 4% paraformaldehyde solution (120 mmHg) for about 5 minutes. […] The image was scanned into a computer and the area of the portion stained with Oil red 0 and the area of the lumen surface were measured using an image analyser software (“Win Roof”, product of Mitani Shoji). In each case of each group, a ratio of the area of the portion stained with Oil Red O to the lumen surface area was calculated and it was designated as an aorta lipid deposition ratio. […]

ACAT = target: T1, ACAT (Mus musculus, UniProt Q61263); test: Cholesterol ester accumulation inhibitory action (ACAT inhibitory activity) in J774 cells; format: cell-based; conditions: 25-hydroxycholesterol 10 μg/ml, 18 hours incubation, concentration inhibiting 50% of CE production, N=4
T1 construct: endogenous in cells; host or cells: J774 cells
T1 sequence (Q61263 1-540): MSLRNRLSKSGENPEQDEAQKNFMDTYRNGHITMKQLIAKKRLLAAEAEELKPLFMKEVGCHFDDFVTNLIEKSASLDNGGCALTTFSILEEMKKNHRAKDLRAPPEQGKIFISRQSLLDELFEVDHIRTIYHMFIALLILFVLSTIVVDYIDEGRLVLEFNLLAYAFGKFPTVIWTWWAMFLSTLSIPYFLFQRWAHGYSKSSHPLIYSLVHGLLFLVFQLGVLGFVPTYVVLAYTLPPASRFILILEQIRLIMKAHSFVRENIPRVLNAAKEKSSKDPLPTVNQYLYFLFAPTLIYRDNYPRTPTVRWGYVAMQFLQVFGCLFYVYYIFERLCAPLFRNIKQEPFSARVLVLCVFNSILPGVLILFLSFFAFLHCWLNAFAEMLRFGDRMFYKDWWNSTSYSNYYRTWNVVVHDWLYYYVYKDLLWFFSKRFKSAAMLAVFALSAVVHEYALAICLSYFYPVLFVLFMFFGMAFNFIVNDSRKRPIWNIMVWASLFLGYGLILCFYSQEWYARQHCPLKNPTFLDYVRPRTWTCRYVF
Method: Test 1: Cholesterol Ester Accumulation Inhibitory Action (ACAT Inhibitory Activity) in J774 Cells.
J774 cells (2×10^5 cells/well) were seeded on a 24-well plate and incubated for 24 hours in 500 μL of DMEM (10% FBS). After replacement with a new medium, 25-hydroxycholesterol (10 μg/ml) and a test compound (final concentration: 0, 10^−9 to 10^−5 mol/L) were added, followed by incubation for 18 hours. After washing with 0.9% NaCl, the lipid was extracted with 250 μL of hexane-isopropanol (3:2) and then extracted with 250 μL of hexane-isopropanol (3:2) again. After the extracts were combined and distilled, the amount of cholesterol ester (CE) thus obtained was determined by the fluorescent enzyme assay. The cells from which the lipid was extracted were subjected to protein assay (micro BCA assay) and the amount of CE per mg of protein was determined. From a CE production ratio of the test compound to the control, IC50 (concentration of the compound inhibiting 50% of CE production) was calculated at N=4.

O=C(CN1CCN(CCSc2nc3cccc(C(F)(F)F)c3o2)CC1)Nc1c(C(F)(F)F)cc(O)cc1C(F)(F)F [compound (1), 2-[4-[2-(7-trifluoromethylbenzoxazol-2-ylthio)ethyl]piperazin-1-yl]-N-[4-hydroxy-2,6-bis(trifluoromethyl)phenyl]acetamide]
remaining ratio of the unchanged compound after 30 minutes ([1]; pooled human liver microsomes, 37° C., 30 minutes, NADPH regenerating system, human serum albumin, HPLC): 38%
metabolic resistance in human liver microsomes relative to compound (B) ([1]; times higher than compound (B)): about 40 times
melting point: 176 to 177 °C
lipid deposition suppression ratio [2]: 43%
IC50 (ACAT): 49 nM
